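Test compounds were applied to cells in 96-well plates for 48 hours at 5 doses. TGI marks complete inhibition of growth.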
How the values were obtained:
Experiment in all cases: NCI-60 cell line screen, 48 h
[1] = system: TK-10 renal
[2] = system: DLD-1 colon
[3] = system: COLO 205 colon
[4] = system: HOP-92 NSCLC
[5] = system: SK-MEL-28 melanoma
[6] = system: LOX IMVI melanoma
[7] = system: DMS 114 small cell lung
[8] = system: LXFL 529 NSCLC
[9] = system: SK-MEL-2 melanoma
[10] = system: SK-MEL-5 melanoma
[11] = system: M19-MEL melanoma
[12] = system: OVCAR-8 ovarian
[13] = system: M14 melanoma
[14] = system: CAKI-1 renal
[15] = system: A549 NSCLC
[16] = system: XF 498 CNS
[17] = system: SNB-75 CNS
[18] = system: IGROV1 ovarian
[19] = system: ACHN renal
[20] = system: UO-31 renal
[21] = system: DMS 273 small cell lung
[22] = system: SNB-78 CNS
[23] = system: CCRF-CEM leukemia
[24] = system: SR leukemia
[25] = system: 786-0 renal
[26] = system: HCC-2998 colon
[27] = system: OVCAR-4 ovarian
[28] = system: U251 CNS
[29] = system: NCI-H522 lung
[30] = system: OVCAR-3 ovarian
[31] = system: SNB-19 CNS
[32] = system: HT29 colon
[33] = system: SW-620 colon
[34] = system: HCT-15 colon
[35] = system: HOP-18 NSCLC
[36] = system: KM20L2 colon
[37] = system: UACC-62 melanoma
[38] = system: HCT-116 colon
[39] = system: NCI-H226 lung
[40] = system: RXF 393 renal
[41] = system: NCI-H23 lung
[42] = system: HL-60(TB) leukemia
[43] = system: UACC-257 melanoma
[44] = system: EKVX NSCLC
[45] = system: MALME-3M melanoma
[46] = system: HOP-62 NSCLC
[47] = system: KM12 colon
[48] = system: MOLT-4 leukemia
[49] = system: SK-OV-3 ovarian
[50] = system: SF-295 CNS
[51] = system: K-562 leukemia
[52] = system: RPMI-8226 leukemia
[53] = system: NCI-H460 lung
[54] = system: SF-268 CNS
[55] = system: OVCAR-5 ovarian
[56] = system: A498 renal
[57] = system: SF-539 CNS
[58] = system: SN12C renal

Measured: TGI

O=C(c1ccccc1)c1nnn(Cc2cccc(Cl)c2)c1C(=O)c1ccccc1
38.8 µM: [3]
not listed: [56] | [57] | [58]
> 100 µM: all other assays above

CCS[C@H]1NC(=O)C1[C@H](C)O[Si](C)(C)C(C)(C)C (stereo partly drawn)
not listed: [8] | [10] | [13] | [20] | [23] | [24] | [26] | [29] | [39] | [42] | [48] | [49]
> 100 µM: all other assays above

COc1ccc(CN(O)C2C(CO)OC(n3cc(I)c(=O)[nH]c3=O)C2O)cc1 (stereo not drawn)
not listed: [39]
> 100 µM: all other assays above

Source: PubChem BioAssay (NCI)
